In the supplement of paper PMC8671470:

tested on: MV4-11; experiment: cell viability (% survival relative to DMSO control); higher = less cytotoxic; settings: drug1 concentration 50 nM; drug2 concentration 10 nM; 72 h
Protocol: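 8x8 drug-combination matrices (0–5000 nM; rosiglitazone and lestaurtinib 0–1000 nM) were run in MV4-11 cells for 72 h with CellTiter-Glo read-out. Survival is normalised to DMSO and 10 µM bortezomib and clipped at 100%.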

Row | Compound | cell viability [%]
1 | Oc1ncc(F)c(O)n1 [5-fluorouracil] + C[C@]12O[C@H](C[C@]1(O)CO)n1c3ccccc3c3c4c(c5c6ccccc6n2c5c31)CNC4=O [Lestaurtinib] | 28.6
2 | CN(C)CCNC(=O)c1cccn2c(=O)c3cc4ccccc4cc3nc12 [Bmh-21] + O=C(O)CC[N+](=O)[O-] [3-nitropropionic acid] | > 100

same assay, conditions: drug1 concentration 50 nM; drug2 concentration 50 nM; 72 h

Row | Compound | cell viability [%]
3 | CN(C)C(=O)n1nnnc1Cc1ccc(-c2ccccc2)cc1 + CCOC(=O)N1c2ccc(C(F)(F)F)cc2[C@@H](N(Cc2cc(C(F)(F)F)cc(C(F)(F)F)c2)C(=O)OC)C[C@H]1CC [Torcetrapib] | > 100
4 | Oc1ncc(F)c(O)n1 [5-fluorouracil] + C[C@]12O[C@H](C[C@]1(O)CO)n1c3ccccc3c3c4c(c5c6ccccc6n2c5c31)CNC4=O [Lestaurtinib] | 2.14
5 | CN(C)CCNC(=O)c1cccn2c(=O)c3cc4ccccc4cc3nc12 [Bmh-21] + O=C(O)CC[N+](=O)[O-] [3-nitropropionic acid] | 90.3

same assay, conditions: drug1 concentration 50 nM; drug2 concentration 100 nM; 72 h

Row | Compound | cell viability [%]
6 | CN(C)C(=O)n1nnnc1Cc1ccc(-c2ccccc2)cc1 + CCOC(=O)N1c2ccc(C(F)(F)F)cc2[C@@H](N(Cc2cc(C(F)(F)F)cc(C(F)(F)F)c2)C(=O)OC)C[C@H]1CC [Torcetrapib] | > 100
7 | Oc1ncc(F)c(O)n1 [5-fluorouracil] + C[C@]12O[C@H](C[C@]1(O)CO)n1c3ccccc3c3c4c(c5c6ccccc6n2c5c31)CNC4=O [Lestaurtinib] | 1.1
8 | CN(C)CCNC(=O)c1cccn2c(=O)c3cc4ccccc4cc3nc12 [Bmh-21] + O=C(O)CC[N+](=O)[O-] [3-nitropropionic acid] | > 100

same assay, conditions: drug1 concentration 50 nM; drug2 concentration 500 nM; 72 h

Row | Compound | cell viability [%]
9 | CN(C)C(=O)n1nnnc1Cc1ccc(-c2ccccc2)cc1 + CCOC(=O)N1c2ccc(C(F)(F)F)cc2[C@@H](N(Cc2cc(C(F)(F)F)cc(C(F)(F)F)c2)C(=O)OC)C[C@H]1CC [Torcetrapib] | > 100
10 | Oc1ncc(F)c(O)n1 [5-fluorouracil] + C[C@]12O[C@H](C[C@]1(O)CO)n1c3ccccc3c3c4c(c5c6ccccc6n2c5c31)CNC4=O [Lestaurtinib] | 1.37
11 | CN(C)CCNC(=O)c1cccn2c(=O)c3cc4ccccc4cc3nc12 [Bmh-21] + O=C(O)CC[N+](=O)[O-] [3-nitropropionic acid] | 96.2

same assay, conditions: drug1 concentration 50 nM; drug2 concentration 1000 nM; 72 h

Row | Compound | cell viability [%]
12 | CN(C)C(=O)n1nnnc1Cc1ccc(-c2ccccc2)cc1 + CCOC(=O)N1c2ccc(C(F)(F)F)cc2[C@@H](N(Cc2cc(C(F)(F)F)cc(C(F)(F)F)c2)C(=O)OC)C[C@H]1CC [Torcetrapib] | 85.5
13 | Oc1ncc(F)c(O)n1 [5-fluorouracil] + C[C@]12O[C@H](C[C@]1(O)CO)n1c3ccccc3c3c4c(c5c6ccccc6n2c5c31)CNC4=O [Lestaurtinib] | 0.53
14 | CN(C)CCNC(=O)c1cccn2c(=O)c3cc4ccccc4cc3nc12 [Bmh-21] + O=C(O)CC[N+](=O)[O-] [3-nitropropionic acid] | > 100

same assay, conditions: drug1 concentration 50 nM; drug2 concentration 5000 nM; 72 h

Row | Compound | cell viability [%]
15 | CN(C)C(=O)n1nnnc1Cc1ccc(-c2ccccc2)cc1 + CCOC(=O)N1c2ccc(C(F)(F)F)cc2[C@@H](N(Cc2cc(C(F)(F)F)cc(C(F)(F)F)c2)C(=O)OC)C[C@H]1CC [Torcetrapib] | > 100
16 | CN(C)CCNC(=O)c1cccn2c(=O)c3cc4ccccc4cc3nc12 [Bmh-21] + O=C(O)CC[N+](=O)[O-] [3-nitropropionic acid] | 66.9

same assay, conditions: drug1 concentration 100 nM; drug2 concentration 1 nM; 72 h

Row | Compound | cell viability [%]
17 | Oc1ncc(F)c(O)n1 [5-fluorouracil] + C[C@]12O[C@H](C[C@]1(O)CO)n1c3ccccc3c3c4c(c5c6ccccc6n2c5c31)CNC4=O [Lestaurtinib] | 88.1

same assay, conditions: drug1 concentration 100 nM; drug2 concentration 5 nM; 72 h

Row | Compound | cell viability [%]
18 | CN(C)C(=O)n1nnnc1Cc1ccc(-c2ccccc2)cc1 + CCOC(=O)N1c2ccc(C(F)(F)F)cc2[C@@H](N(Cc2cc(C(F)(F)F)cc(C(F)(F)F)c2)C(=O)OC)C[C@H]1CC [Torcetrapib] | 89.1
19 | Oc1ncc(F)c(O)n1 [5-fluorouracil] + C[C@]12O[C@H](C[C@]1(O)CO)n1c3ccccc3c3c4c(c5c6ccccc6n2c5c31)CNC4=O [Lestaurtinib] | 46
20 | CN(C)CCNC(=O)c1cccn2c(=O)c3cc4ccccc4cc3nc12 [Bmh-21] + O=C(O)CC[N+](=O)[O-] [3-nitropropionic acid] | 80.6

same assay, conditions: drug1 concentration 100 nM; drug2 concentration 10 nM; 72 h

Row | Compound | cell viability [%]
21 | CN(C)C(=O)n1nnnc1Cc1ccc(-c2ccccc2)cc1 + CCOC(=O)N1c2ccc(C(F)(F)F)cc2[C@@H](N(Cc2cc(C(F)(F)F)cc(C(F)(F)F)c2)C(=O)OC)C[C@H]1CC [Torcetrapib] | 85
22 | Oc1ncc(F)c(O)n1 [5-fluorouracil] + C[C@]12O[C@H](C[C@]1(O)CO)n1c3ccccc3c3c4c(c5c6ccccc6n2c5c31)CNC4=O [Lestaurtinib] | 42.1
23 | CN(C)CCNC(=O)c1cccn2c(=O)c3cc4ccccc4cc3nc12 [Bmh-21] + O=C(O)CC[N+](=O)[O-] [3-nitropropionic acid] | > 100

same assay, conditions: drug1 concentration 100 nM; drug2 concentration 50 nM; 72 h

Row | Compound | cell viability [%]
24 | CN(C)C(=O)n1nnnc1Cc1ccc(-c2ccccc2)cc1 + CCOC(=O)N1c2ccc(C(F)(F)F)cc2[C@@H](N(Cc2cc(C(F)(F)F)cc(C(F)(F)F)c2)C(=O)OC)C[C@H]1CC [Torcetrapib] | 87.6
25 | Oc1ncc(F)c(O)n1 [5-fluorouracil] + C[C@]12O[C@H](C[C@]1(O)CO)n1c3ccccc3c3c4c(c5c6ccccc6n2c5c31)CNC4=O [Lestaurtinib] | 3.46
26 | CN(C)CCNC(=O)c1cccn2c(=O)c3cc4ccccc4cc3nc12 [Bmh-21] + O=C(O)CC[N+](=O)[O-] [3-nitropropionic acid] | > 100

same assay, conditions: drug1 concentration 100 nM; drug2 concentration 100 nM; 72 h

Row | Compound | cell viability [%]
27 | CN(C)C(=O)n1nnnc1Cc1ccc(-c2ccccc2)cc1 + CCOC(=O)N1c2ccc(C(F)(F)F)cc2[C@@H](N(Cc2cc(C(F)(F)F)cc(C(F)(F)F)c2)C(=O)OC)C[C@H]1CC [Torcetrapib] | > 100
28 | Oc1ncc(F)c(O)n1 [5-fluorouracil] + C[C@]12O[C@H](C[C@]1(O)CO)n1c3ccccc3c3c4c(c5c6ccccc6n2c5c31)CNC4=O [Lestaurtinib] | 1.76
29 | CN(C)CCNC(=O)c1cccn2c(=O)c3cc4ccccc4cc3nc12 [Bmh-21] + O=C(O)CC[N+](=O)[O-] [3-nitropropionic acid] | 93.2

same assay, conditions: drug1 concentration 100 nM; drug2 concentration 500 nM; 72 h

Row | Compound | cell viability [%]
30 | CN(C)C(=O)n1nnnc1Cc1ccc(-c2ccccc2)cc1 + CCOC(=O)N1c2ccc(C(F)(F)F)cc2[C@@H](N(Cc2cc(C(F)(F)F)cc(C(F)(F)F)c2)C(=O)OC)C[C@H]1CC [Torcetrapib] | 98
31 | Oc1ncc(F)c(O)n1 [5-fluorouracil] + C[C@]12O[C@H](C[C@]1(O)CO)n1c3ccccc3c3c4c(c5c6ccccc6n2c5c31)CNC4=O [Lestaurtinib] | 1.89
32 | CN(C)CCNC(=O)c1cccn2c(=O)c3cc4ccccc4cc3nc12 [Bmh-21] + O=C(O)CC[N+](=O)[O-] [3-nitropropionic acid] | 95.9

same assay, conditions: drug1 concentration 100 nM; drug2 concentration 1000 nM; 72 h

Row | Compound | cell viability [%]
33 | CN(C)C(=O)n1nnnc1Cc1ccc(-c2ccccc2)cc1 + CCOC(=O)N1c2ccc(C(F)(F)F)cc2[C@@H](N(Cc2cc(C(F)(F)F)cc(C(F)(F)F)c2)C(=O)OC)C[C@H]1CC [Torcetrapib] | 93
34 | Oc1ncc(F)c(O)n1 [5-fluorouracil] + C[C@]12O[C@H](C[C@]1(O)CO)n1c3ccccc3c3c4c(c5c6ccccc6n2c5c31)CNC4=O [Lestaurtinib] | 3.29
35 | CN(C)CCNC(=O)c1cccn2c(=O)c3cc4ccccc4cc3nc12 [Bmh-21] + O=C(O)CC[N+](=O)[O-] [3-nitropropionic acid] | 98.2

same assay, conditions: drug1 concentration 100 nM; drug2 concentration 5000 nM; 72 h

Row | Compound | cell viability [%]
36 | CN(C)C(=O)n1nnnc1Cc1ccc(-c2ccccc2)cc1 + CCOC(=O)N1c2ccc(C(F)(F)F)cc2[C@@H](N(Cc2cc(C(F)(F)F)cc(C(F)(F)F)c2)C(=O)OC)C[C@H]1CC [Torcetrapib] | 98.2
37 | CN(C)CCNC(=O)c1cccn2c(=O)c3cc4ccccc4cc3nc12 [Bmh-21] + O=C(O)CC[N+](=O)[O-] [3-nitropropionic acid] | > 100

same assay, conditions: drug1 concentration 500 nM; drug2 concentration 1 nM; 72 h

Row | Compound | cell viability [%]
38 | Oc1ncc(F)c(O)n1 [5-fluorouracil] + C[C@]12O[C@H](C[C@]1(O)CO)n1c3ccccc3c3c4c(c5c6ccccc6n2c5c31)CNC4=O [Lestaurtinib] | 69.4

same assay, conditions: drug1 concentration 500 nM; drug2 concentration 5 nM; 72 h

Row | Compound | cell viability [%]
39 | CN(C)C(=O)n1nnnc1Cc1ccc(-c2ccccc2)cc1 + CCOC(=O)N1c2ccc(C(F)(F)F)cc2[C@@H](N(Cc2cc(C(F)(F)F)cc(C(F)(F)F)c2)C(=O)OC)C[C@H]1CC [Torcetrapib] | 76.8
40 | Oc1ncc(F)c(O)n1 [5-fluorouracil] + C[C@]12O[C@H](C[C@]1(O)CO)n1c3ccccc3c3c4c(c5c6ccccc6n2c5c31)CNC4=O [Lestaurtinib] | 55.2
41 | CN(C)CCNC(=O)c1cccn2c(=O)c3cc4ccccc4cc3nc12 [Bmh-21] + O=C(O)CC[N+](=O)[O-] [3-nitropropionic acid] | 72.2

same assay, conditions: drug1 concentration 500 nM; drug2 concentration 10 nM; 72 h

Row | Compound | cell viability [%]
42 | CN(C)C(=O)n1nnnc1Cc1ccc(-c2ccccc2)cc1 + CCOC(=O)N1c2ccc(C(F)(F)F)cc2[C@@H](N(Cc2cc(C(F)(F)F)cc(C(F)(F)F)c2)C(=O)OC)C[C@H]1CC [Torcetrapib] | 74.3
43 | Oc1ncc(F)c(O)n1 [5-fluorouracil] + C[C@]12O[C@H](C[C@]1(O)CO)n1c3ccccc3c3c4c(c5c6ccccc6n2c5c31)CNC4=O [Lestaurtinib] | 19
44 | CN(C)CCNC(=O)c1cccn2c(=O)c3cc4ccccc4cc3nc12 [Bmh-21] + O=C(O)CC[N+](=O)[O-] [3-nitropropionic acid] | 39.5

same assay, conditions: drug1 concentration 500 nM; drug2 concentration 50 nM; 72 h

Row | Compound | cell viability [%]
45 | CN(C)C(=O)n1nnnc1Cc1ccc(-c2ccccc2)cc1 + CCOC(=O)N1c2ccc(C(F)(F)F)cc2[C@@H](N(Cc2cc(C(F)(F)F)cc(C(F)(F)F)c2)C(=O)OC)C[C@H]1CC [Torcetrapib] | 88.5
46 | Oc1ncc(F)c(O)n1 [5-fluorouracil] + C[C@]12O[C@H](C[C@]1(O)CO)n1c3ccccc3c3c4c(c5c6ccccc6n2c5c31)CNC4=O [Lestaurtinib] | 4.09
47 | CN(C)CCNC(=O)c1cccn2c(=O)c3cc4ccccc4cc3nc12 [Bmh-21] + O=C(O)CC[N+](=O)[O-] [3-nitropropionic acid] | 73.8

same assay, conditions: drug1 concentration 500 nM; drug2 concentration 100 nM; 72 h

Row | Compound | cell viability [%]
48 | CN(C)C(=O)n1nnnc1Cc1ccc(-c2ccccc2)cc1 + CCOC(=O)N1c2ccc(C(F)(F)F)cc2[C@@H](N(Cc2cc(C(F)(F)F)cc(C(F)(F)F)c2)C(=O)OC)C[C@H]1CC [Torcetrapib] | > 100
49 | Oc1ncc(F)c(O)n1 [5-fluorouracil] + C[C@]12O[C@H](C[C@]1(O)CO)n1c3ccccc3c3c4c(c5c6ccccc6n2c5c31)CNC4=O [Lestaurtinib] | 0.68
50 | CN(C)CCNC(=O)c1cccn2c(=O)c3cc4ccccc4cc3nc12 [Bmh-21] + O=C(O)CC[N+](=O)[O-] [3-nitropropionic acid] | 77.6
